Patent US20220273619A1, “PHARMACEUTICAL FORMULATIONS COMPRISING SODIUM PALMITOYL-L-PROLYL-L-PROLYLGLYCYL-L-TYROSINATE AND METHODS FOR PREPARING THE SAME” (Bridge Blctherapeutics, lnc., priority 2019, published 2022)
Converted amounts (≈) assume the structure as drawn. Where a name gives a salt, the structure may show the parent alone. Where a SMILES comes first, the peptide text is derived from it. The star is where a group is joined. Palmitoyl = CCCCCCCCCCCCCCCC(=O)*

Experiments:
[1] = Solubility in water of other salts of Compound II; assay type: physicochemical
[2] = Solubility at room temperature, manual dilution combined with visual observation; assay type: physicochemical; conditions: for solubility: room temperature
Procedure: The solubility was tested in various solvents for palmitoyl-L-prolyl-L-prolyl-glycyl-L-tyrosine (Compound II). The solubility test was performed by manual dilution combined with visual observation.
The solubility was tested at room temperature in various solvents for Compound I. In addition, the solubility test was performed by manual dilution combined with visual observation. Specifically, 2 mg of Compound I was added to a 1.5 mL HPLC vial and continuously stirred at ambient temperature while the solvent was gradually added.

[3] = Stability test: impurities by HPLC after storage; assay type: physicochemical
Procedure: After the dosage forms prepared in the present invention were stored for a period of time in a long-term storage stability condition (25° C./60% RH) or an accelerated stability condition (40° C./75% RH), the content of individual impurities or total impurities was measured. The impurities were measured using a validated HPLC analysis method. The specific conditions are as follows.

[4] = Solubility by shaking at 25° C., filtration and HPLC of the filtrate; assay type: physicochemical
Procedure: The solubility was measured by the following method. An appropriate amount of sample was placed in a 1.5 mL HPLC vial, and then 1.0 mL of solvent was added. The HPLC vial was shaken at 25° C. at a speed of 700 rpm, then the slurry was filtered, and the filtrate was analyzed by HPLC. In this case, the limit of quantification (LOQ) was 2 μg/mL.
In order to increase the solubility of palmitoyl-L-prolyl-L-prolyl-glycyl-L-tyrosine (Compound II) in water, the amorphous solid dispersions of Compound II were prepared, and then the solubility was measured.
In order to increase the solubility of palmitoyl-L-prolyl-L-prolyl-glycyl-L-tyrosine (Compound II) in water, a surfactant such as sodium lauryl sulfate (SLS) was added, and the solubility was measured.

[5] = system: interleukin-6; conditions: cited from earlier work
[6] = system: NF-κB; conditions: cited from earlier work
[7] = Solid-form observation of the disodium salt (hygroscopicity); assay type: physicochemical; conditions: could not be maintained in the form of the solid powder
Procedure: In the method for preparing Compound I, an excess of NaOH (for example; 4 equivalents) was added to prepare disodium palmitoyl-L-prolyl-L-prolyl-glycyl-L-tyrosinate.

[8] = 1,4-dioxane, 1,4-dioxane, read-out: Solubility
[9] = 1-butanol, read-out: Solubility
[10] = 2-methyl tetrahydrofuran, read-out: Solubility
[11] = ACN-H2O (1:1), read-out: Solubility
[12] = N-methyl pyrrolidone, read-out: Solubility
[13] = THF-H2O (1:1), read-out: Solubility
[14] = acetone-H2O (1:2), read-out: Solubility
[15] = acetonitrile, read-out: Solubility
[16] = cyclohexane, read-out: Solubility
[17] = ethanol-H2O (1:1), read-out: Solubility
[18] = ethanol-H2O (3:1), read-out: Solubility
[19] = ethyl acetate, read-out: Solubility
[20] = isopropyl acetate, read-out: Solubility
[21] = isopropyl alcohol, read-out: Solubility
[22] = methanol-H2O (1:1), read-out: Solubility
[23] = methanol-H2O (3:1), read-out: Solubility
[24] = methyl ethyl ketone, read-out: Solubility
[25] = methyl isobutyl ketone, read-out: Solubility
[26] = methyl t-butyl ether, read-out: Solubility
[27] = tetrahydrofuran, read-out: Solubility
[28] = SGF (pH = 1.2), 25° C., LOQ = 2 μg/mL

With CCCCCCCCCCCCCCCC(=O)N1CCC[C@H]1C(=O)N1CCC[C@H]1C(=O)NCC(=O)N[C@@H](Cc1ccc(O)cc1)C(=O)O [Arginine Salt] (Palmitoyl-PPGY-OH) the solubility [1] was less than 10000 µg/mL.

With CCCCCCCCCCCCCCCC(=O)N1CCC[C@H]1C(=O)N1CCC[C@H]1C(=O)NCC(=O)N[C@@H](Cc1ccc(O)cc1)C(=O)[O-].[Na+] [Compound I, sodium palmitoyl-L-prolyl-L-prolyl-glycyl-L-tyrosinate] (Palmitoyl-PPGY-OH) the solubility [2, 8] was 33300 to 50000 µg/mL, the solubility [2, 9] was 50000 to 100000 µg/mL and the solubility [2, 10] was greater than 100000 µg/mL. It also gave a solubility [2, 11] of 50000 to 100000 µg/mL, a solubility ([2]; DMF, read-out: Solubility) of 20000 to 33300 µg/mL and a solubility ([2]; DMSO, read-out: Solubility) of 50000 to 100000 µg/mL. The solubility [2, 12] was 50000 to 100000 µg/mL, the solubility [2, 13] was 50000 to 100000 µg/mL and the solubility [2, 14] was 50000 to 100000 µg/mL. For the same compound, the solubility ([2]; acetone, read-out: Solubility) was less than 1000 µg/mL, the solubility [2, 15] was less than 1000 µg/mL and the solubility [2, 16] was less than 1000 µg/mL. For the same compound, the solubility [2, 17] was 50000 to 100000 µg/mL, the solubility [2, 18] was 50000 to 100000 µg/mL and the solubility ([2]; ethanol, read-out: Solubility) was 50000 to 100000 µg/mL. The solubility [2, 19] was less than 1000 µg/mL, the solubility ([2]; heptane, read-out: Solubility) was less than 1000 µg/mL and the solubility [2, 20] was less than 1000 µg/mL. For the same compound, the solubility [2, 21] was 50000 to 100000 µg/mL, the solubility [2, 22] was greater than 100000 µg/mL and the solubility [2, 23] was greater than 100000 µg/mL. The solubility ([2]; methanol, read-out: Solubility) was greater than 100000 µg/mL, the solubility [2, 24] was 3300 to 5000 µg/mL and the solubility [2, 25] was 1200 to 1400 µg/mL. For the same compound, the solubility [2, 26] was less than 1000 µg/mL, the solubility [2, 27] was greater than 100000 µg/mL and the solubility ([2]; toluene, read-out: Solubility) was 50000 to 100000 µg/mL. The “water solubility of Compound I compared to that of Compound II in an acid form” value ([2]; water) was “tens of thousands of times or more”, the solubility ([2]; water, read-out: Solubility) was no less than 100000 µg/mL and the “Stability of Compound I” value ([3]; in capsules of Table 26, 1 month, accelerated stability condition 40° C./75% RH) was “stable”. For the same compound, the “Stability of Compound I” value ([3]; in capsules of Table 31, 1 month, accelerated stability condition 40° C./75% RH) was “stable”, the “Stability of Compound I” value ([3]; in capsules of Table 36, 6 months, long-term storage stability condition 25° C./60% RH) was “stable” and the “Stability of Compound I” value ([3]; in capsules of Table 37, 6 months, accelerated stability condition 40° C./75% RH) was “stable”.

In the case of CCCCCCCCCCCCCCCC(=O)N1CCC[C@H]1C(=O)N1CCC[C@H]1C(=O)NCC(=O)N[C@@H](Cc1ccc(O)cc1)C(=O)O [Compound II, Palmitoyl-L-prolyl-L-prolyl-glycyl-L-tyrosine] (Palmitoyl-PPGY-OH), the solubility [2, 8] is reported as less than 1000 µg/mL, the solubility [2, 9] is reported as less than 1000 µg/mL and the solubility [2, 10] is reported as less than 1000 µg/mL. The solubility [2, 11] was less than 1000 µg/mL, the solubility ([2]; DMF, read-out: Solubility) was 1000 to 5000 µg/mL and the solubility ([2]; DMSO, read-out: Solubility) was 10000 to 25000 µg/mL. The solubility [2, 12] was 1000 to 5000 µg/mL, the solubility [2, 13] was 1000 to 5000 µg/mL and the solubility ([2]; Water) was less than 1000 µg/mL. For the same compound, the solubility [2, 14] was less than 1000 µg/mL, the solubility ([2]; acetone, read-out: Solubility) was less than 1000 µg/mL and the solubility [2, 15] was less than 1000 µg/mL. It also gave a solubility [2, 16] of less than 1000 µg/mL, a solubility [2, 17] of less than 1000 µg/mL and a solubility [2, 18] of less than 1000 µg/mL. The solubility ([2]; ethanol, read-out: Solubility) was less than 1000 µg/mL, the solubility [2, 19] was less than 1000 µg/mL and the solubility ([2]; heptane, read-out: Solubility) was less than 1000 µg/mL. The solubility [2, 20] was less than 1000 µg/mL, the solubility [2, 21] was less than 1000 µg/mL and the solubility [2, 22] was less than 1000 µg/mL. It also gave a solubility [2, 23] of less than 1000 µg/mL, a solubility ([2]; methanol, read-out: Solubility) of 1000 to 5000 µg/mL and a solubility [2, 24] of less than 1000 µg/mL. It also gave a solubility [2, 25] of less than 1000 µg/mL, a solubility [2, 26] of less than 1000 µg/mL and a solubility [2, 27] of less than 1000 µg/mL. For the same compound, the solubility ([2]; toluene, read-out: Solubility) was less than 1000 µg/mL, the solubility ([2]; water, read-out: Solubility) was less than 1000 µg/mL and the solubility ([4]; 1% Poloxamer 188 added, SGF (pH = 1.2), LOQ = 2 μg/mL) was “<LOQ”. For the same compound, the solubility ([4]; 1% Poloxamer 188 added, Water, LOQ = 2 μg/mL) was “<LOQ”, the solubility ([4]; 5% Poloxamer 188 added, SGF (pH = 1.2), LOQ = 2 μg/mL) was “<LOQ” and the solubility ([4]; 5% Poloxamer 188 added, Water, LOQ = 2 μg/mL) was “<LOQ”. The solubility ([4]; FaSSIF with 1% Poloxamer 188, 1% Poloxamer 188 added, FaSSIF, LOQ = 2 μg/mL, read-out: Solubility) was 10 µg/mL (≈ 14.9 µM), the solubility ([4]; FaSSIF with 1% SLS, 1% SLS added, FaSSIF, LOQ = 2 μg/mL, read-out: Solubility) was 1990 µg/mL (≈ 2970 µM) and the solubility ([4]; FaSSIF with 5% Poloxamer 188, 5% Poloxamer 188 added, FaSSIF, LOQ = 2 μg/mL, read-out: Solubility) was 10 µg/mL (≈ 14.9 µM). For the same compound, the solubility ([4]; FaSSIF with 5% SLS, 5% SLS added, FaSSIF, LOQ = 2 μg/mL, read-out: Solubility) was 5090 µg/mL (≈ 7590 µM), the solubility ([4]; FaSSIF, 25° C., LOQ = 2 μg/mL) was 10 µg/mL (≈ 14.9 µM) and the solubility [4, 28] was “<LOQ”. For the same compound, the solubility ([4]; SGF with 1% SLS, pH 1.2, 1% SLS added, SGF (pH = 1.2), LOQ = 2 μg/mL, read-out: Solubility) was 90 µg/mL (≈ 134 µM), the solubility ([4]; SGF with 5% SLS, pH 1.2, 5% SLS added, SGF (pH = 1.2), LOQ = 2 μg/mL, read-out: Solubility) was 380 µg/mL (≈ 566 µM) and the solubility ([4]; Water, 25° C., LOQ = 2 μg/mL) was “<LOQ”. The solubility ([4]; water with 1% SLS, 1% SLS added, Water, LOQ = 2 μg/mL, read-out: Solubility) was 470 µg/mL (≈ 701 µM), the solubility ([4]; water with 5% SLS, 5% SLS added, Water, LOQ = 2 μg/mL, read-out: Solubility) was 1920 µg/mL (≈ 2860 µM) and the solubility ([4]; water, lower than the limit of quantification (LOQ), read-out: water solubility) was less than 2 µg/mL. The “inhibiting the expression of interleukin-6” value [5] was “excellent effect” and the “inhibiting the activity of NF-κB” value [6] was “excellent effect”.

For CCCCCCCCCCCCCCCC(=O)N1CCC[C@H]1C(=O)N1CCC[C@H]1C(=O)NCC(=O)N[C@@H](Cc1ccc([O-])cc1)C(=O)[O-].[Na+].[Na+] [Disodium Palmitoyl-L-prolyl-L-prolyl-glycyl-L-tyrosinate] (Palmitoyl-PPGY-OH), the Hygroscopicity [7] was “very hygroscopic”.

With CCCCCCCCCCCCCCCC(=O)N1CCC[C@H]1C(=O)N1CCC[C@H]1C(=O)NCC(=O)N[C@@H](Cc1ccc(O)cc1)C(=O)O [Meglumine Salt] (Palmitoyl-PPGY-OH) the solubility ([1]; read-out: Solubility) was less than 10000 µg/mL.

In the case of CCCCCCCCCCCCCCCC(=O)N1CCC[C@H]1C(=O)N1CCC[C@H]1C(=O)NCC(=O)N[C@@H](Cc1ccc(O)cc1)C(=O)O [Micronized Compound II] (Palmitoyl-PPGY-OH), the solubility ([4]; FaSSIF, 25° C., LOQ = 2 μg/mL) is reported as 50 µg/mL (≈ 74.5 µM), the solubility [4, 28] is reported as “<LOQ” and the solubility ([4]; Water, 25° C., LOQ = 2 μg/mL) is reported as “<LOQ”.
